Laboratory results as given in patent US10723711B2, “1,1,1-trifluoro-3-hydroxypropan-2-yl carbamate derivatives and 1,1,1-trifluoro-4-hydroxybutan-2-yl carbamate derivatives as MAGL inhibitors” (PFIZER INC., priority 2015, dated 2020).
Where two headings read alike, the source gives them in different places.

Key:
[1] = target: T1, human recombinant Monoacylglycerol Lipase (Homo sapiens, UniProt Q99685); experiment: MAGL inactivation, enzyme progress curves, kinact/KI; assay type: biochemical; details: from enzyme progress curves, T = 0 min protocol; geometric mean of 2-4 determinations unless otherwise indicated
T1 sequence (Q99685 1-303): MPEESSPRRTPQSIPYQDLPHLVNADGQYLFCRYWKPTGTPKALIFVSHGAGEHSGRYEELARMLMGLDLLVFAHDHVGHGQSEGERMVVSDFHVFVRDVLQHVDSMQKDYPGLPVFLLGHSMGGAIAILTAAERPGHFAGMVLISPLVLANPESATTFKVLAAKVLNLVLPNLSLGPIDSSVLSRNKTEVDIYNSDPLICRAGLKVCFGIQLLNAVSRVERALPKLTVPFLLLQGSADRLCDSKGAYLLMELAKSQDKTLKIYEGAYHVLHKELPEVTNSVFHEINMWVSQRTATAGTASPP
How it was run: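 Human recombinant MAGL ([…]) with compound, 7-HCA substrate (final 5 μM) added immediately (T=0 min), in pH 7.4 HEPES buffer with 0.1% Triton X-100 and 25% glycerin. Fluorescence (Ex/Em 340/465) was read every minute over 60 min, giving progress curves at decreasing compound concentrations (final 3 μM to 0.03 nM).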

[2] = Prodrug in vivo pharmacokinetics in dogs after intravenous administration (LC-MS-MS of prodrug and parent); details: Beagle dogs
Method: (§1) Pharmacokinetic parameters derived from the plasma analytical data were determined using Watson LIMS 7.2.003 (Thermo Fisher Scientific, Waltham, Mass.).

[3] = target: T1, human recombinant Monoacylglycerol Lipase; experiment: MAGL inhibition enzymatic assay, fluorogenic substrate 7-HCA, IC50 at T=0 min or after 30 minute incubation (T=30 min); assay type: biochemical; details: geometric mean of 2-4 determinations unless otherwise indicated
Method: An equal volume of 7-HCA in assay buffer with 10% DMSO was added either immediately (T=0 min) or after a 30 minute incubation (T=30 min) to initiate the reaction. […] After these dilutions, the final concentration of the test compound ranged from 3 μM to 0.03 nM. […] IC50 values were generated based on a four parameter fit model using ABASE software from IDBS.

human recombinant FAAH = target: T2, human recombinant FAAH (Homo sapiens, UniProt O00519); experiment: FAAH inhibition enzymatic assay, fluorescent substrate Arachidonoyl-AMC, 30 minute incubation; assay type: biochemical; details: T = 30 min (30 minute incubation); geometric mean of 2-4 determinations unless otherwise indicated
T2 construct: purchased Cayman 10010183
T2 sequence (O00519 1-579): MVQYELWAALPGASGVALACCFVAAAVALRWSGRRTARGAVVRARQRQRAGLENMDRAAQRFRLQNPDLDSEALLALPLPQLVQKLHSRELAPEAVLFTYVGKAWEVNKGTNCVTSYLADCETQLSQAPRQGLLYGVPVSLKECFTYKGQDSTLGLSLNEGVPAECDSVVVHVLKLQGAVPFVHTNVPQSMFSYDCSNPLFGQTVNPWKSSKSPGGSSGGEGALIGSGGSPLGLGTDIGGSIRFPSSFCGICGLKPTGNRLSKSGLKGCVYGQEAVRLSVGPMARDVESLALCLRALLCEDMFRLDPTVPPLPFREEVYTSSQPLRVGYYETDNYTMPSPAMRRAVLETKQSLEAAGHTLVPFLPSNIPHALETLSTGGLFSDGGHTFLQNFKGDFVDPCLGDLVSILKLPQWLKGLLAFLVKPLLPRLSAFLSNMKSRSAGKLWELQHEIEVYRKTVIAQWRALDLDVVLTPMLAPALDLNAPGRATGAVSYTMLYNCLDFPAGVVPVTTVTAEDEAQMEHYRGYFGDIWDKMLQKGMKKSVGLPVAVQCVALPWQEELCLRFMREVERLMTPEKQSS

[4] = Prodrug in vivo pharmacokinetics in rats after intravenous administration (LC-MS-MS of prodrug and parent); details: Wistar Hann rats; for Cmax: Wistar Hann, rat, iv
Method: as §1

[5] = Example 6 (parent) in plasma, IV Example 32 at 1 mg/kg, Dog 03
[6] = Example 6 (parent) in plasma, IV Example 32 at 1 mg/kg, Dog 04
[7] = Example 6 (parent) in plasma, IV Example 32 at 1 mg/kg, Mean
[8] = T = 0 min (substrate added immediately), read-out: MAGL (T = 0 min) IC50
[9] = T = 30 min (30 minute incubation), read-out: MAGL (T = 30 min) IC50
[10] = Example 6 (parent) in plasma, IV Example 32 at 2 mg/kg, Mean
[11] = Example 6 (parent) in plasma, IV Example 32 at 2 mg/kg, Rat 03
[12] = Example 6 (parent) in plasma, IV Example 32 at 2 mg/kg, Rat 04
[13] = Example 9 (parent) in plasma, IV Example 31 at 0.7 mg/kg, Dog 01
[14] = Example 9 (parent) in plasma, IV Example 31 at 0.7 mg/kg, Dog 02
[15] = Example 9 (parent) in plasma, IV Example 31 at 0.7 mg/kg, Mean
[16] = Example 9 (parent) in plasma, IV Example 31 at 1.48 mg/kg, Mean
[17] = Example 9 (parent) in plasma, IV Example 31 at 1.48 mg/kg, Rat 01
[18] = Example 9 (parent) in plasma, IV Example 31 at 1.48 mg/kg, Rat 02

## O=C(O[C@H](CO)C(F)(F)F)N1CCC2(CC1)CN(S(=O)(=O)c1ccc(F)cc1)CCO2 [Example 6, (2R)-1,1,1-Trifluoro-3-hydroxypropan-2-yl 4-[(4-fluorophenyl)sulfonyl]-1-oxa-4,9-diazaspiro[5.5]undecane-9-carboxylate]
[1]
  MAGL kinact/KI: 13406 1/s per M
other
  melting point: 132 °C
[2]; [5]
  AUC: 591 ng·h/mL
  AUC Extrap: 595 ng·h/mL
  Tmax: 4.98 min
  T½: 246 min
[2]; [6]
  AUC: 705 ng·h/mL
  AUC Extrap: 710 ng·h/mL
  Tmax: 4.98 min
  T½: 322 min
[2]; [7]
  AUC: 648 ng·h/mL
  AUC Extrap: 653 ng·h/mL
  Tmax: 4.98 min
  T½: 284 min
[3]; [8]
  IC50: 83 nM
[3]; [9]
  IC50: 7 nM
Human recombinant FAAH
  IC50: > 30000 nM
[4]; [10]
  % AUC Extrap: 3.46%
  AUC: 158 ng·h/mL
  AUC Extrap: 162 ng·h/mL
  Rate Constant: 2.22 h⁻¹
  Tmax: 3.48 min
  T½: 20.5 min
[4]; [11]
  % AUC Extrap: 6.04%
  AUC: 102 ng·h/mL
  AUC Extrap: 109 ng·h/mL
  Rate Constant: 2.86 h⁻¹
  Tmax: 4.98 min
  T½: 14.5 min
[4]; [12]
  % AUC Extrap: 0.880%
  AUC: 213 ng·h/mL
  AUC Extrap: 215 ng·h/mL
  Rate Constant: 1.57 h⁻¹
  Tmax: 1.98 min
  T½: 26.5 min
[4]; plasma, 2 mg/kg, Example 6 (parent) in plasma, IV Example 32 at 2 mg/kg, Mean
  Cmax: 309 ng/mL
[4]; plasma, 2 mg/kg, Example 6 (parent) in plasma, IV Example 32 at 2 mg/kg, Rat 03
  Cmax: 234 ng/mL
[4]; plasma, 2 mg/kg, Example 6 (parent) in plasma, IV Example 32 at 2 mg/kg, Rat 04
  Cmax: 384 ng/mL

## O=C(O[C@H](CO)C(F)(F)F)N1CCC2(CC1)C[C@@H](NS(=O)(=O)c1ccccc1)CO2 [Example 9, (2R)-1,1,1-Trifluoro-3-hydroxypropan-2-yl (3R)-3-[(phenylsulfonyl)amino]-1-oxa-8-azaspiro[4.5]decane-8-carboxylate]
[1]
  MAGL kinact/KI: 8588 1/s per M
[2]; [13]
  AUC: 1350 ng·h/mL
  AUC Extrap: 1550 ng·h/mL
  Tmax: 15 min
  T½: 642 min
[2]; [14]
  AUC: 1460 ng·h/mL
  AUC Extrap: 1560 ng·h/mL
  Tmax: 4.98 min
  T½: 482 min
[2]; [15]
  AUC: 1410 ng·h/mL
  AUC Extrap: 1560 ng·h/mL
  Tmax: 10.2 min
  T½: 562 min
[3]; [8]
  IC50: 40 nM
[3]; [9]
  IC50: 4 nM
Human recombinant FAAH
  IC50: > 30000 nM
[4]; [16]
  % AUC Extrap: 2.46%
  AUC: 146 ng·h/mL
  AUC Extrap: 150 ng·h/mL
  Rate Constant: 0.500 h⁻¹
  Tmax: 4.98 min
  T½: 84.6 min
[4]; [17]
  % AUC Extrap: 2.08%
  AUC: 118 ng·h/mL
  AUC Extrap: 121 ng·h/mL
  Rate Constant: 0.560 h⁻¹
  Tmax: 4.98 min
  T½: 74.4 min
[4]; [18]
  % AUC Extrap: 2.83%
  AUC: 173 ng·h/mL
  AUC Extrap: 178 ng·h/mL
  Rate Constant: 0.440 h⁻¹
  Tmax: 4.98 min
  T½: 94.2 min
[4]; in vivo, 1.48 mg/kg, Example 9 (parent) in plasma, IV Example 31 at 1.48 mg/kg, Mean
  Cmax: 316 ng/mL
[4]; in vivo, 1.48 mg/kg, Example 9 (parent) in plasma, IV Example 31 at 1.48 mg/kg, Rat 01
  Cmax: 253 ng/mL
[4]; in vivo, 1.48 mg/kg, Example 9 (parent) in plasma, IV Example 31 at 1.48 mg/kg, Rat 02
  Cmax: 378 ng/mL
